{"source": "patent US9549921B2", "about": "“Heterocyclic compounds and methods of use thereof for the treatment of hepatitis C” (priority 2014, dated 2017)", "key": {"[1]": {"system": "HCV replicon genotype 1a", "assay": "HCV replicon assay, genotype 1a (cell ELISA for NS3/4A)", "assay_type": "cell-based, hepatitis C virus", "details": "Hepatitis C virus, 96 h, read-out: 1a IC50 (nM), HCV genotype 1a replicon cells, 96 hours incubation, NS3/4A ELISA readout, % of DMSO control", "protocol": "(§1) The HCV NS5B inhibitory activity of the present compounds may be tested using assays known in the art. The HCV NS5B polymerase inhibitors described herein have activities in a genotype 1b replicon assay as described in the Examples. The assay is performed by incubating a replicon harboring cell-line in the presence of inhibitor for a set period of time and measuring the effect of the inhibitor on HCV replicon replication either directly by quantifying replicon RNA level, or indirectly by measuring enzymatic activity of a co-encoded reporter enzyme such as luciferase or β-lactamase. By performing a series of such measurements at different inhibitor concentrations, the effective inhibitory concentration of the inhibitor (EC50 or EC90) is determined. See Jan M. Vrolijk et al., A replicons-based bioassay for the measurement of interferons in patients with chronic hepatitis C, 110 J. VIROLOGICAL METHODS 201 (2003). Such assays may also be run in an automated format for high through-put screening. See Paul Zuck et al., A cell-based β-lactamase reporter gene assay for the identification of inhibitors of hepatitis C virus replication, 334 ANALYTICAL BIOCHEMISTRY 344 (2004).\n(§2) Measurement of inhibition by compounds was performed using the HCV replicon system. Several different replicons encoding different HCV genotypes or mutations were used. In addition, potency measurements were made using different formats of the replicon assay, including different ways of measurements and different plating formats. See Jan M. Vrolijk et al., A replicons-based bioassay for the measurement of interferons in patients with chronic hepatitis C, 110 J. VIROLOGICAL METHODS 201 (2003); Steven S. Carroll et al., Inhibition of Hepatitis C Virus RNA Replication by 2′-Modified Nucleoside Analogs, 278(14) J. BIOLOGICAL CHEMISTRY 11979 (2003). However, the underlying principles are common to all of these determinations, and are outlined below.\n(§3) Stable neomycin phosphotransferase encoding replicons-harboring cell lines were used, so all cell lines were maintained under G418 selection prior to the assay. Potency was deteremined using a cell ELISA assay with an antibody to the replicons encoded NS3/4a protease. See Caterina Trozzi et al., In Vitro Selection and Characterization of Hepatitis C Virus Serine Protease Variants Resistant to an Active-Site Peptide Inhibitor, 77(6) J. Virol. 3669 (2003). To initiate an assay, replicon cells were plated in the presence of a dilution series of test compound in the absence of G418. Typically, the assays were performed in a 96-well plate formate for manual operation, or a 384-well plate format for automated assay. Replicon cells and compound were incubated for 96 hours. At the end of the assay, cells were washed free of media and compound, and the cells were then lysed. RNA was quantified indirectly through detection of replicon-encoded NS3/4A protein levels, through an ELISA-based assay with an antibody specific for NS3/4A. IC50 determinations were calculated as a percentage of a DMSO control by fitting the data to a four-parameter fit function and the data obtained is provided in the table below.\n(§4) Data for selected compounds of the present invention was obtained for genotypes 1a and 1b using this method and is provided in the table below: […]"}, "[2]": {"system": "HCV replicon genotype 1b", "assay": "HCV replicon assay, genotype 1b (cell ELISA for NS3/4A)", "assay_type": "cell-based, hepatitis C virus", "details": "Hepatitis C virus, 96 h, read-out: 1b IC50 (nM), HCV genotype 1b replicon cells, 96 hours incubation, NS3/4A ELISA readout, % of DMSO control", "protocol": "as §1, §2, §3, §4"}}, "data": [{"smiles": "CNC(=O)c1c(-c2ccc(F)cc2)oc2cc(N(C)S(C)(=O)=O)c([C@@H]3CCCN(C(=O)c4cc5ccccc5n4C)C3)cc12", "note": "[Example 67, 2-(4-fluorophenyl)-N-methyl-5-{1-[(1-methyl-1H-indol-2-yl)carbonyl]piperidin-3-yl}-6-[methyl(methylsulfonyl)amino]-1-benzofuran-3-carboxamide]", "values": [{"measurement": "IC50", "setting": "[1]", "result": 156, "unit": "nM"}, {"measurement": "IC50", "setting": "[2]", "result": 87.4, "unit": "nM"}]}, {"smiles": "CNC(=O)c1c(-c2ccc(F)cc2)oc2cc(N(C)S(C)(=O)=O)c([C@@H]3CCCN(S(=O)(=O)CCc4ccccc4)C3)cc12", "note": "[Example 124, 2-(4-fluorophenyl)-N-methyl-6-[methyl(methylsulfonyl)amino]-5-{(3S)-1-[(2-phenylethyl)sulfonyl]piperidin-3-yl}-1-benzofuran-3-carboxamide]", "values": [{"measurement": "IC50", "setting": "[1]", "result": 182, "unit": "nM"}, {"measurement": "IC50", "setting": "[2]", "result": 72.9, "unit": "nM"}]}, {"smiles": "CNC(=O)c1c(-c2ccc(F)cc2)oc2cc(N(C)S(C)(=O)=O)c([C@@H]3CCCN(S(=O)(=O)Cc4cccnc4)C3)cc12", "note": "[Example 110, 2-(4-fluorophenyl)-N-methyl-6-[methyl(methylsulfonyl)amino]-5-{(3S)-1-[(pyridin-3-ylmethyl)sulfonyl]piperidin-3-yl}-1-benzofuran-3-carboxamide]", "values": [{"measurement": "IC50", "setting": "[1]", "result": 164, "unit": "nM"}, {"measurement": "IC50", "setting": "[2]", "result": 38.4, "unit": "nM"}]}, {"smiles": "CNC(=O)c1c(-c2ccc(F)cc2)oc2cc(N(C)S(C)(=O)=O)c([C@H]3CCCN(S(=O)(=O)c4ccccc4)C3)cc12", "note": "[Example 134, 2-(4-fluorophenyl)-N-methyl-6-[methyl(methylsulfonyl)amino]-5-[(3R)-1-(phenylsulfonyl)piperidin-3-yl]-1-benzofuran-3-carboxamide]", "values": [{"measurement": "IC50", "setting": "[1]", "result": 85.9, "unit": "nM"}, {"measurement": "IC50", "setting": "[2]", "result": 58.3, "unit": "nM"}]}, {"smiles": "CNC(=O)c1c(-c2ccc(F)cc2)oc2cc(N(C)S(C)(=O)=O)c([C@H]3CCCN(S(=O)(=O)c4ccccc4C)C3)cc12", "note": "[Example 128, 2-(4-fluorophenyl)-N-methyl-6-[methyl(methylsulfonyl)amino]-5-{(3R)-1-[(2-methylphenyl)sulfonyl]piperidin-3-yl}-1-benzofuran-3-carboxamide]", "values": [{"measurement": "IC50", "setting": "[1]", "result": 34.2, "unit": "nM"}, {"measurement": "IC50", "setting": "[2]", "result": 24.2, "unit": "nM"}]}, {"smiles": "CNC(=O)c1c(-c2ccc(F)cc2)oc2cc(N(C)S(C)(=O)=O)c([C@H]3CCCN(S(=O)(=O)C4CCCCC4)C3)cc12", "note": "[Example 132, 5-[(3R)-1-(cyclohexylsulfonyl)piperidin-3-yl]-2-(4-fluorophenyl)-N-methyl-6-[methyl(methylsulfonyl)amino]-1-benzofuran-3-carboxamide]", "values": [{"measurement": "IC50", "setting": "[1]", "result": 93.3, "unit": "nM"}, {"measurement": "IC50", "setting": "[2]", "result": 56.1, "unit": "nM"}]}, {"smiles": "CNC(=O)c1c(-c2ccc(F)cc2)oc2cc(N(C)S(C)(=O)=O)c([C@@H]3CCCN(S(=O)(=O)c4c(Cl)nc5sccn45)C3)cc12", "note": "[Example 118, 5-{(3S)-1-[(6-chloroimidazo[2,1-b][1,3]thiazol-5-yl)sulfonyl]piperidin-3-yl}-2-(4-fluorophenyl)-N-methyl-6-[methyl(methylsulfonyl)amino]-1-benzofuran-3-carboxamide]", "values": [{"measurement": "IC50", "setting": "[1]", "result": 41, "unit": "nM"}, {"measurement": "IC50", "setting": "[2]", "result": 8.36, "unit": "nM"}]}, {"smiles": "CNC(=O)c1c(-c2ccc(F)cc2)oc2cc(N(C)S(C)(=O)=O)c([C@H]3CCCN(C(=O)c4cc5cccc(C(F)(F)F)c5[nH]4)C3)cc12", "note": "[Example 40, (R)-2-(4-fluorophenyl)-N-methyl-6-(N-methylmethylsulfonamido)-5-(1-(7-(trifluoromethyl)-1H-indole-2-carbonyl)piperidin-3-yl)benzofuran-3-carboxamide]", "values": [{"measurement": "IC50", "setting": "[1]", "result": 142, "unit": "nM"}, {"measurement": "IC50", "setting": "[2]", "result": 27.6, "unit": "nM"}]}, {"smiles": "CNC(=O)c1c(-c2ccc(F)cc2)oc2cc(N(C)S(C)(=O)=O)c([C@@H]3CCCN(C(=O)c4[nH]c5c(F)cccc5c4C)C3)cc12", "note": "[Example 37, (S)-5-(1-(7-fluoro-3-methyl-1H-indole-2-carbonyl)piperidin-3-yl)-2-(4-fluorophenyl)-N-methyl-6-(N-methylmethylsulfonamido)benzofuran-3-carboxamide]", "values": [{"measurement": "IC50", "setting": "[1]", "result": 162, "unit": "nM"}, {"measurement": "IC50", "setting": "[2]", "result": 92.8, "unit": "nM"}]}, {"smiles": "CNC(=O)c1c(-c2ccc(F)cc2)oc2cc(N(C)S(C)(=O)=O)c([C@@H]3CCCN(C(=O)C4CC4c4ccc(F)cc4)C3)cc12", "note": "(stereo in doubt) [Example 61, 2-(4-fluorophenyl)-5-(1-{[2-(4-fluorophenyl)cyclopropyl]carbonyl}piperidin-3-yl)-N-methyl-6-[methyl(methylsulfonyl)amino]-1-benzofuran-3-carboxamide]", "values": [{"measurement": "IC50", "setting": "[1]", "result": 251, "unit": "nM"}, {"measurement": "IC50", "setting": "[2]", "result": 99.5, "unit": "nM"}]}, {"smiles": "CNC(=O)c1c(-c2ccc(F)cc2)oc2cc(N(C)S(C)(=O)=O)c([C@H]3CCCN(C(=O)c4cc5c(F)cccc5[nH]4)C3)cc12", "note": "[Example 88, 5-{(3R)-1-[(4-fluoro-1H-indol-2-yl)carbonyl]piperidin-3-yl}-2-(4-fluorophenyl)-N-methyl-6-[methyl(methylsulfonyl)amino]-1-benzofuran-3-carboxamide]", "values": [{"measurement": "IC50", "setting": "[1]", "result": 70.7, "unit": "nM"}, {"measurement": "IC50", "setting": "[2]", "result": 38.7, "unit": "nM"}]}, {"smiles": "CNC(=O)c1c(-c2ccc(F)cc2)oc2cc(N(C)S(C)(=O)=O)c([C@H]3CN(C(=O)c4cc5cccc(F)c5[nH]4)CCO3)cc12", "note": "(single isomer, unassigned) [Example 6, 5-(4-(7-fluoro-1H-indole-2-carbonyl)morpholin-2-yl)-2-(4-fluorophenyl)-N-methyl-6-(N-methylmethylsulfonamido)benzofuran-3-carboxamide]", "values": [{"measurement": "IC50", "setting": "[1]", "result": 11.1, "unit": "nM"}, {"measurement": "IC50", "setting": "[2]", "result": 17.4, "unit": "nM"}]}, {"smiles": "CNC(=O)c1c(-c2ccc(F)cc2)oc2cc(N(C)S(C)(=O)=O)c([C@H]3CN(C(=O)c4cc5c(F)cccc5n4C)CCO3)cc12", "note": "(single isomer, unassigned) [Example 8, 5-(4-(4-fluoro-1-methyl-1H-indole-2-carbonyl)morpholin-2-yl)-2-(4-fluorophenyl)-N-methyl-6-(N-methylmethylsulfonamido)benzofuran-3-carboxamide]", "values": [{"measurement": "IC50", "setting": "[1]", "result": 28.2, "unit": "nM"}, {"measurement": "IC50", "setting": "[2]", "result": 36.9, "unit": "nM"}]}, {"smiles": "CNC(=O)c1c(-c2ccc(F)cc2)oc2cc(N(C)S(C)(=O)=O)c([C@H]3CCCN(C(=O)c4cc5cc(C(F)(F)F)ccc5n4C)C3)cc12", "note": "[Example 89, 2-(4-fluorophenyl)-N-methyl-6-[methyl(methylsulfonyl)amino]-5-[(3R)-1-{[1-methyl-5-(trifluoromethyl)-1H-indol-2-yl]carbonyl}piperidin-3-yl]-1-benzofuran-3-carboxamide]", "values": [{"measurement": "IC50", "setting": "[1]", "result": 84.4, "unit": "nM"}, {"measurement": "IC50", "setting": "[2]", "result": 45.2, "unit": "nM"}]}, {"smiles": "CNC(=O)c1c(-c2ccc(F)cc2)oc2cc(N(C)S(C)(=O)=O)c([C@@H]3CCCN(C(=O)C=C(C)C)C3)cc12", "note": "[Example 63, 2-(4-fluorophenyl)-N-methyl-5-[1-(3-methylbut-2-enoyl)piperidin-3-yl]-6-[methyl(methylsulfonyl)amino]-1-benzofuran-3-carboxamide]", "values": [{"measurement": "IC50", "setting": "[1]", "result": 156, "unit": "nM"}, {"measurement": "IC50", "setting": "[2]", "result": 68.1, "unit": "nM"}]}, {"smiles": "CNC(=O)c1c(-c2ccc(F)cc2)oc2cc(N(C)S(C)(=O)=O)c([C@H]3CCCN(S(=O)(=O)c4cc5cccc(F)c5[nH]4)C3)cc12", "note": "[Example 3, (R)-5-(1-((7-fluoro-1H-indol-2-yl)sulfonyl)piperidin-3-yl)-2-(4-fluorophenyl)-N-methyl-6-(N-methylmethylsulfonamido)benzofuran-3-carboxamide]", "values": [{"measurement": "IC50", "setting": "[1]", "result": 148, "unit": "nM"}, {"measurement": "IC50", "setting": "[2]", "result": 109, "unit": "nM"}]}, {"smiles": "CNC(=O)c1c(-c2ccc(F)cc2)oc2cc(N(C)S(C)(=O)=O)c([C@@H]3CCCN(S(=O)(=O)Cc4ccccn4)C3)cc12", "note": "[Example 123, 2-(4-fluorophenyl)-N-methyl-6-[methyl(methylsulfonyl)amino]-5-{(3S)-1-[(pyridin-2-ylmethyl)sulfonyl]piperidin-3-yl}-1-benzofuran-3-carboxamide]", "values": [{"measurement": "IC50", "setting": "[1]", "result": 106, "unit": "nM"}, {"measurement": "IC50", "setting": "[2]", "result": 29.8, "unit": "nM"}]}, {"smiles": "CNC(=O)c1c(-c2ccc(F)cc2)oc2cc(N(C)S(C)(=O)=O)c([C@@H]3CCCN(C(=O)c4cc5cccc(C(F)(F)F)c5[nH]4)C3)cc12", "note": "[Example 39, (S)-2-(4-fluorophenyl)-N-methyl-6-(N-methylmethylsulfonamido)-5-(1-(7-(trifluoromethyl)-1H-indole-2-carbonyl)piperidin-3-yl)benzofuran-3-carboxamide]", "values": [{"measurement": "IC50", "setting": "[1]", "result": 268, "unit": "nM"}, {"measurement": "IC50", "setting": "[2]", "result": 36.4, "unit": "nM"}]}]}
